Assay results from patent US20230057359A1, “NOVEL USE OF STEVIOL” (SUNTORY HOLDINGS LIMITED, priority 2019, published 2023).

Legend:
[1] = tested on: HepG2 cells; experiment: TG accumulation test in hepatocytes (Adipogenesis Assay Kit, oleic acid); assay type: cell-based; conditions: 0.2 mM oleic acid, 24 hours, DMSO=100%
Experimental: HepG2 cells were precultured using the growth medium in the same manner as in Example 5. The cells were detached using 0.25% trypsin-EDTA, seeded at 30,000 cells/100 μL/well to a 96-well plate using the growth medium, and cultured overnight in a CO2 incubator. On the next day, the medium was replaced with 100 μL of a test medium (DMEM (high glucose) supplemented with 0.2 mM oleic acid (Cat. No. 03008, Sigma-Aldrich), 10% FBS and 1% penicillin-streptomycin) supplemented with varying concentrations of steviol (12.5, 25, 50, 100 or 200 μg/mL, dissolved in 0.1% DMSO (final concentration)). The cells were cultured for 24 hours in a CO2 incubator. A test medium supplemented with 2 mM metformin (Cat. No. M2009, Tokyo Chemical Industry Co., Ltd.) was used as a positive control (Metformin), and a vehicle control composed of a test medium supplemented with 0.1% DMSO (final concentration) was used as a negative control (DMSO). Cells cultured in a test medium containing no oleic acid was used as an untreated control (Untreated). The cells thus cultured were subjected to oil red staining in the same manner as in Example 3, followed by photographing and calculation of a relative fat accumulation level. An intracellular triglyceride (TG) level in cells separately cultured under the same conditions as in the cells employed in the oil red staining was quantified using Adipogenesis Assay Kit (BioVision Inc.) according to the manufacturer's protocol. Absorbance (570 nm) was measured using a plate reader (VARIOSKAN FLASH, Thermo Fisher Scientific Inc.), and a relative TG level was calculated. Significant difference of untreated group vs fat accumulation induction group (negative control group) was tested (two-tailed) by the Student's t test as to the relative fat accumulation level and the relative TG level, and P<0.05 was regarded as having significant difference. Also, significant difference of negative control group vs steviol addition group/positive control group was tested (two-tailed) by the Dunnett test, and P<0.05 was regarded as having significant difference. The results of the fat accumulation test are shown in Table 6 and FIG. 6, and the results of the TG accumulation test are shown in Table 7 and FIG. 7.

[2] = tested on: HepG2 cells; experiment: Fat accumulation test in hepatocytes (oil red staining, oleic acid); assay type: cell-based; conditions: for Relative fat accumulation level (%): 0.2 mM oleic acid, 24 hours, DMSO=100%
Experimental: Normal human subcutaneous preadipocytes were precultured using the growth medium in the same manner as in Example 1. The cells were detached using 0.25% trypsin-EDTA, seeded at 10,000 cells/100 μL/well to a 96-well plate using a growth medium, and cultured overnight in a CO2 incubator. On the next day, the medium was replaced with 100 μL of a differentiation medium supplemented with varying concentrations of steviol (12.5, 25, 50, 100 or 200 μg/mL, dissolved in 0.1% DMSO (final concentration)). The cells were cultured for 10 days in a CO2 incubator to induce their differentiation into adipocytes. On the fourth and seventh days after the differentiation induction, the medium was replaced with a fresh medium (100 μL) having the same composition as above. A differentiation medium supplemented with 25 mM LiCl (Cat. No. SML0559, Sigma-Aldrich Co., LLC) was used as a positive control, and a differentiation medium supplemented with 0.1% DMSO (final concentration) was used as a negative control. Cells cultured in a growth medium were used as an untreated control (Untreated). The cells thus cultured were subjected to oil red staining. Specifically, the cells were washed twice with 100 μL of DPBS (Cat. No. 14190250, Thermo Fisher Scientific Inc.). Then, the cells were fixed (room temperature, 10 min) in 100 μL of a 10% formalin solution (Cat. No. 061-00416, FUJIFILM Wako Pure Chemical Corp.). The cells were washed twice with 100 μL of DPBS, then incubated for 1 minute in 100 μL of 60% 2-propanol (Cat. No. 166-04836, FUJIFILM Wako Pure Chemical Corp.) that replaced the medium, and stained for 15 minutes in 100 μL of an oil red staining solution (Cat. No. 00625, Sigma-Aldrich Co., LLC) that replaced the 2-propanol solution. The cells were washed once with 100 μL of 60% 2-propanol and washed twice with 100 μL of DPBS. Then, cell images were taken in 100 μL of DPBS. After subsequent replacement with 120 μL of 100% 2-propanol, oil red was extracted by incubation for 5 minutes, and 100 μL of the extracts was transferred to each well of a fresh 96-well plate. Absorbance (520 nm) was measured using a plate reader (VARIOSKAN FLASH, Thermo Fisher Scientific Inc.), and a relative fat accumulation level was calculated. Significant difference of differentiation non-induced group vs differentiation induced group (negative control group) was tested (two-tailed), and P<0.05 was regarded as having significant difference. Also, significant difference of negative control group vs steviol addition group/positive control group was tested (two-tailed) by the Dunnett test, and P<0.05 was regarded as having significant difference. […] HepG2 cells were precultured using the growth medium in the same manner as in Example 5. The cells were detached using 0.25% trypsin-EDTA, seeded at 30,000 cells/100 μL/well to a 96-well plate using the growth medium, and cultured overnight in a CO2 incubator. On the next day, the medium was replaced with 100 μL of a test medium (DMEM (high glucose) supplemented with 0.2 mM oleic acid (Cat. No. 03008, Sigma-Aldrich), 10% FBS and 1% penicillin-streptomycin) supplemented with varying concentrations of steviol (12.5, 25, 50, 100 or 200 μg/mL, dissolved in 0.1% DMSO (final concentration)). The cells were cultured for 24 hours in a CO2 incubator. A test medium supplemented with 2 mM metformin (Cat. No. M2009, Tokyo Chemical Industry Co., Ltd.) was used as a positive control (Metformin), and a vehicle control composed of a test medium supplemented with 0.1% DMSO (final concentration) was used as a negative control (DMSO). Cells cultured in a test medium containing no oleic acid was used as an untreated control (Untreated). The cells thus cultured were subjected to oil red staining in the same manner as in Example 3, followed by photographing and calculation of a relative fat accumulation level. […]

Question: What does the source list for C=C1C[C@@]23CC[C@H]4[C@@](C)(CCC[C@@]4(C)C(=O)O)[C@@H]2CC[C@]1(O)C3 [Steviol, steviol]?
Answer: Relative TG level (%) ([1]; steviol 12.5 μg/mL): 98.8%; Relative TG level (%) ([1]; steviol 25 μg/mL): 90.0%; Relative TG level (%) ([1]; steviol 50 μg/mL): 93.7%; Relative TG level (%) ([1]; steviol 100 μg/mL): 89.4%; Relative TG level (%) ([1]; steviol 200 μg/mL): 81.4%; fat accumulation in HepG2 test (in words) ([2]; 12.5 to 200 μg/mL): suppressed fat accumulation in adipocytes in a concentration-dependent manner; Relative fat accumulation level (%) ([2]; steviol 12.5 μg/mL): 98.9%; Relative fat accumulation level (%) ([2]; steviol 25 μg/mL): 98.1%; Relative fat accumulation level (%) ([2]; steviol 50 μg/mL): 86.4%; Relative fat accumulation level (%) ([2]; steviol 100 μg/mL): 85.6%; Relative fat accumulation level (%) ([2]; steviol 200 μg/mL): 83.0%
